# Results reported in article PMC9783573, “Introduction of a SiFA Moiety into the D-Glutamate Chain of DOTA-PP-F11N Results in Radiohybrid-Based CCK-2R-Targeted Compounds with Improved Pharmacokinetics In Vivo” (Pharmaceuticals, 2022).
# Starred links: 1 amine or outer side, 2 acyl side, 3 side chain; linkers in the order of their positions; H or OH if unused. Non-standard residues stand in square brackets, D forms with d. Residues, ends and D or L forms follow the SMILES beside them. *: point of attachment. X1 = O=C(O)CN1CCN(CC(=O)O)CCN([C@H](CCC(=O)*)C(=O)O)CCN(CC(=O)O)CC1; Benzoyl(4-SiFtBu2) = CC(C)(C)[Si](F)(c1ccc(C(=O)*)cc1)C(C)(C)C; d(γGlu) = O=C(O)[C@@H](CCC(=O)[*:2])N[*:1]; Nle = CCCC[C@H](N)C(=O)O; dDap = NC[C@@H](N)C(=O)O
# Molecular target: T1, CCK-2R (Rattus norvegicus, UniProt P30553)
# T1 construct: CCK-2R expressing rat pancreatic cancer cells AR42J (CLS GmbH, Eppelheim,; host or cells: AR42J rat pancreatic cancer cells
# T1 sequence (P30553 1-452): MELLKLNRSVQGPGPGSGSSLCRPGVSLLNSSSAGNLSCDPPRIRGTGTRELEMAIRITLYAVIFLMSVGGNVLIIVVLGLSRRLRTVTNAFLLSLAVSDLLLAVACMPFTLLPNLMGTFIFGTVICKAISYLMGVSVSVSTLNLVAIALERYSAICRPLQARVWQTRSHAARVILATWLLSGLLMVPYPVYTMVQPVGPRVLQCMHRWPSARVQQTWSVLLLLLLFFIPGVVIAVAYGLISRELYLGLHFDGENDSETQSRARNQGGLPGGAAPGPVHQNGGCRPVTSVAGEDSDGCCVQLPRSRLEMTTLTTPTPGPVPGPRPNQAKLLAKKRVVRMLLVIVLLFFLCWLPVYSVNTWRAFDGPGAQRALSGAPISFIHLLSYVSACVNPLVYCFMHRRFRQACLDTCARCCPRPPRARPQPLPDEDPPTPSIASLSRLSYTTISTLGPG
# Assay: Competitive binding (IC50) on AR42J cells with [177Lu]Lu-DOTA-PP-F11N as radiolabelled reference
# Settings: natLu-labelled peptide; AR42J cells 2.0 × 10^5/well, 3 h, 37 °C, [177Lu]Lu-DOTA-PP-F11N 0.3 pmol/well
# Experimental: Detailed description of all cell-based experiments is provided in the Supplementary Materials. In brief, competitive binding studies were conducted on AR42J cells (2.0 × 10^5 cells per 1 mL/well) via incubation at 37 °C for 3 h using [^177Lu]Lu-DOTA-PP-F11N (0.3 pmol) as a radiolabelled reference (n = 3).
# Cell Culture. CCK-2R expressing rat pancreatic cancer cells AR42J (CLS GmbH, Eppelheim, Germany) were cultivated in monolayers in CELLSTAR ® cell culture flasks acquired from Greiner Bio-One GmbH (Frickenhausen, Germany) at 37 °C in a humidified atmosphere (5% CO2) using a HERAcell 150i-Incubator (Thermo Fisher Scientific Inc., Waltham, United States). As nutrient medium RPMI 1640 medium, supplemented with 5 mM L-Gln 5 mL non-essential amino acids (100×) and 10% FCS, was used. Furthermore, a Dulbecco’s PBS solution with 0.1% EDTA (v/v) was applied to detach the cells for cell passaging. The detached cells were counted using a Neubauer hemocytometer ( Paul Marienfeld, Lauda-Königshofen, Germany). In addition, all operations under sterile conditions were accomplished using a MSC-Advantage safety workbench (Thermo Fisher Scientific Inc., Waltham, United States).
# Determination of IC50. AR42J cells (2.0 × 10^5 cells/well) were seeded into 24-well plates 24 ± 2 h prior to testing, using 1 mL of nutrient medium (RPMI 1640, 5 mM L-Gln, 5 mL non-essential amino acids (100×), 10% FCS). Cells were incubated at 37 °C in a humidified atmosphere (5% CO2).
# After removal of the medium, each well was washed with 500 μL PBS. For the cell-based assay, 200 μL of nutrient medium (+5% BSA), [177Lu]Lu-DOTA-PP-F11N (25 μL, 0.3 pmol) as a radiolabeled reference and 25 μL of the peptide of interest in increasing concentrations (10−10 to 10−4 M) in triplicate were added to the cells. Thereafter, the assay was incubated for 3 h at 37 °C and thereafter, the supernatant was collected. The cells were washed with 300 μL PBS and the collected supernatant fractions were unified.
# After lysis of the cells with NaOH (300 μL, 1 N) for 15 min, the respective wells were washed with NaOH (300 μL, 1 N) and both fractions were unified. The radioactivity of both, the supernatant and the lysed fractions was quantified using a γ-counter (PerkinElmer Inc., Waltham, United States ). The obtained data were evaluated via the GraphPad PRISM software ( GraphPad Software Inc., La Jolla, United States), which calculates the halfmaximal inhibitory concentration ( IC50) of the peptides. […]
row,Structure (SMILES),IC50
1,"CCCC[C@H](NC(=O)[C@H](Cc1c[nH]c2ccccc12)NC(=O)CNC(=O)[C@H](Cc1ccc(O)cc1)NC(=O)[C@H](C)NC(=O)[C@@H](CCC(=O)O)NC(=O)[C@@H](CCC(=O)O)NC(=O)[C@@H](CNC(=O)c1ccc([Si](F)(C(C)(C)C)C(C)(C)C)cc1)NC(=O)[C@@H](CCC(=O)O)NC(=O)[C@@H](CCC(=O)O)NC(=O)[C@@H](CCC(=O)O)NC(=O)[C@@H](CCC(=O)O)NC(=O)CC[C@H](C(=O)O)N1CCN(CC(=O)O)CCN(CC(=O)O)CCN(CC(=O)O)CC1)C(=O)N[C@@H](CC(=O)O)C(=O)N[C@@H](Cc1ccccc1)C(N)=O [[nat/177Lu]Lu-(R)-DOTAGA-rhCCK-3, metal not drawn] (X1-[dE][dE][dE][dE][dDap](Benzoyl(4-SiFtBu2))[dE][dE]AYGW[Nle]DF-NH2)",156 ± 4 nM

# System: not listed separately
# Assay: Lipophilicity, n-octanol/PBS (pH 7.4) distribution coefficient
# Type: physicochemical
# Settings: 177Lu-labelled peptide; n-octanol/PBS pH 7.4; read-out: logD7.4
# Experimental: Lipophilicity (depicted as octanol-phosphate-buffered saline solution (PBS, pH = 7.4) distribution coefficient, logD7.4) was determined via dissolving the ^177Lu-labelled peptide (approx. 1 MBq) in a mixture (1/1, v/v) of n-octanol and PBS. The suspension was vortexed in a reaction vial (1.5 mL) for 3 min at RT and the vial was centrifuged at 9000× […] for 5 min (Biofuge 15, Heraus Sepatech GmbH, Osterode, Germany). 200 μL aliquots of both layers were measured separately in a γ-counter (Perkin Elmer, Waltham, MA, USA). The experiment was repeated at least five times.
row,Structure (SMILES),logD
1,"CCCC[C@H](NC(=O)[C@H](Cc1c[nH]c2ccccc12)NC(=O)CNC(=O)[C@H](Cc1ccc(O)cc1)NC(=O)[C@H](C)NC(=O)[C@@H](CCC(=O)O)NC(=O)[C@@H](CCC(=O)O)NC(=O)[C@@H](CNC(=O)c1ccc([Si](F)(C(C)(C)C)C(C)(C)C)cc1)NC(=O)[C@@H](CCC(=O)O)NC(=O)[C@@H](CCC(=O)O)NC(=O)[C@@H](CCC(=O)O)NC(=O)[C@@H](CCC(=O)O)NC(=O)CC[C@H](C(=O)O)N1CCN(CC(=O)O)CCN(CC(=O)O)CCN(CC(=O)O)CC1)C(=O)N[C@@H](CC(=O)O)C(=O)N[C@@H](Cc1ccccc1)C(N)=O [[nat/177Lu]Lu-(R)-DOTAGA-rhCCK-3, metal not drawn] (X1-[dE][dE][dE][dE][dDap](Benzoyl(4-SiFtBu2))[dE][dE]AYGW[Nle]DF-NH2)",-2.03 ± 0.1
2,"CCCC[C@H](NC(=O)[C@H](Cc1c[nH]c2ccccc12)NC(=O)CNC(=O)[C@H](Cc1ccc(O)cc1)NC(=O)[C@H](C)NC(=O)CC[C@@H](NC(=O)CC[C@@H](NC(=O)[C@@H](CNC(=O)c1ccc([Si](F)(C(C)(C)C)C(C)(C)C)cc1)NC(=O)CC[C@@H](NC(=O)CC[C@@H](NC(=O)CC[C@@H](NC(=O)CC[C@@H](NC(=O)CC[C@H](C(=O)O)N1CCN(CC(=O)O)CCN(CC(=O)O)CCN(CC(=O)O)CC1)C(=O)O)C(=O)O)C(=O)O)C(=O)O)C(=O)O)C(=O)O)C(=O)N[C@@H](CC(=O)O)C(=O)N[C@@H](Cc1ccccc1)C(N)=O [[nat/177Lu]Lu-(R)-DOTAGA-rhCCK-12, metal not drawn] ({X1-d(γGlu)-d(γGlu)-d(γGlu)-d(γGlu)}-[dDap](Benzoyl(4-SiFtBu2))[d(γGlu)][d(γGlu)]AYGW[Nle]DF-NH2)",-2.34 ± 0.05
3,"CCCC[C@H](NC(=O)[C@H](Cc1c[nH]c2ccccc12)NC(=O)CNC(=O)[C@H](Cc1ccc(O)cc1)NC(=O)[C@H](C)NC(=O)CC[C@@H](NC(=O)CC[C@@H](NC(=O)CC[C@@H](NC(=O)[C@@H](CNC(=O)c1ccc([Si](F)(C(C)(C)C)C(C)(C)C)cc1)NC(=O)CC[C@@H](NC(=O)CC[C@@H](NC(=O)CC[C@@H](NC(=O)CC[C@H](C(=O)O)N1CCN(CC(=O)O)CCN(CC(=O)O)CCN(CC(=O)O)CC1)C(=O)O)C(=O)O)C(=O)O)C(=O)O)C(=O)O)C(=O)O)C(=O)N[C@@H](CC(=O)O)C(=O)N[C@@H](Cc1ccccc1)C(N)=O [[nat/177Lu]Lu-(R)-DOTAGA-rhCCK-13, metal not drawn] ({X1-d(γGlu)-d(γGlu)-d(γGlu)}-[dDap](Benzoyl(4-SiFtBu2))[d(γGlu)][d(γGlu)][d(γGlu)]AYGW[Nle]DF-NH2)",-2.57 ± 0.06
4,"CCCC[C@H](NC(=O)[C@H](Cc1c[nH]c2ccccc12)NC(=O)CNC(=O)[C@H](Cc1ccc(O)cc1)NC(=O)[C@H](C)NC(=O)CC[C@@H](NC(=O)CC[C@@H](NC(=O)CC[C@@H](NC(=O)CC[C@@H](NC(=O)[C@@H](CNC(=O)c1ccc([Si](F)(C(C)(C)C)C(C)(C)C)cc1)NC(=O)CC[C@@H](NC(=O)CC[C@@H](NC(=O)CC[C@H](C(=O)O)N1CCN(CC(=O)O)CCN(CC(=O)O)CCN(CC(=O)O)CC1)C(=O)O)C(=O)O)C(=O)O)C(=O)O)C(=O)O)C(=O)O)C(=O)N[C@@H](CC(=O)O)C(=O)N[C@@H](Cc1ccccc1)C(N)=O [[nat/177Lu]Lu-(R)-DOTAGA-rhCCK-14, metal not drawn] ({X1-d(γGlu)-d(γGlu)}-[dDap](Benzoyl(4-SiFtBu2))[d(γGlu)][d(γGlu)][d(γGlu)][d(γGlu)]AYGW[Nle]DF-NH2)",-2.26 ± 0.05
